This is an account of results in ChEMBL document CHEMBL5058564, “EUbOPEN Chemogenomics Library 2 (Incucyte)” (2022).

Common to all, as to format: toxicity, cell-based
One data set has as its system U2OS. Nature of the data set: Incucyte cell viability with U2OS. The note with it: human, 10 µM, compound concentration 10 uM.
In a further data set the test system is HEK-293T. Description: Incucyte cell viability with HEK293T. The note with it: human, 10 µM, compound concentration 10 uM.
A further data set has as its system Fibroblast. Description: Incucyte cell viability with human fibroblast. The note with it: 10 µM, compound concentration 10 uM.
[1] abbreviates: 0 h, replicate number 1, timepoint 0 hours.
Where [2] appears, read: 0 h, replicate number 2, timepoint 0 hours.
Where [3] appears, read: 6 h, replicate number 1, timepoint 6 hours.
The mark [4] stands for this setting: 12 h, replicate number 2, timepoint 12 hours.
[5] abbreviates: 18 h, replicate number 1, timepoint 18 hours.
Setting [6] is: 18 h, replicate number 2, timepoint 18 hours.
The mark [7] stands for this setting: 24 h, replicate number 2, timepoint 24 hours.
Setting [8] is: 6 h, replicate number 2, timepoint 6 hours.
Setting [9] is: 12 h, replicate number 1, timepoint 12 hours.
[10] abbreviates: 24 h, replicate number 1, timepoint 24 hours.
Also: unitless GR value; below 1 slowed growth and below 0 cell loss.

In the case of `O=S(=O)(c1ccccc1)N(CC(F)(F)F)c1ccc(C(O)(C(F)(F)F)C(F)(F)F)cc1` [T091317], the “Growth Rate” value in the data set with U2OS (setting [1]) is listed as 0.14; with U2OS (setting [2]) it was -0.29; in the data set on U2OS (setting [3]), 0.74; in the data set with U2OS (setting [4]), 0.83; in the data set with U2OS (setting [5]) it was 0.98; with U2OS (setting [6]), 0.76. Further, the “Growth Rate” value with U2OS (setting [7]) came out at 0.81; in the data set with HEK-293T (setting [1]), 0.85; with HEK-293T (setting [3]) it was 0.85; with HEK-293T (setting [8]) it was 0.77; with HEK-293T (setting [9]) it was 0.42; in the data set with HEK-293T (setting [4]) it was 0.75. The “Growth Rate” value in the data set on HEK-293T (setting [5]) is recorded as 0.24; in the data set on HEK-293T (setting [6]) it was 0.56; in the data set with HEK-293T (setting [10]), 0.37; in the data set with HEK-293T (setting [7]), 0.53; with Fibroblast (setting [3]), 0.72; in the data set with Fibroblast (setting [9]) it was -0.09. For the same compound, the “Growth Rate” value is reported as 0.22 in the data set on Fibroblast (setting [4]); -0.3 in the data set with Fibroblast (setting [5]); 0.05 in the data set with Fibroblast (setting [6]); -0.32 in the data set with Fibroblast (setting [10]); 0.05 with Fibroblast (setting [7]).

Turning to `N#Cc1cc(F)cc(-c2nc(-c3ccc(F)cn3)no2)c1`, the “Growth Rate” value with U2OS (setting [2]) is reported as -0.87; in the data set with U2OS (setting [3]), -0.32; in the data set on U2OS (setting [8]), 0.62; in the data set with U2OS (setting [9]), 0.46; in the data set on U2OS (setting [4]) it was 0.86; in the data set on U2OS (setting [5]), 0.57. The “Growth Rate” value is given as 0.65 in the data set with U2OS (setting [10]); 0.85 in the data set with HEK-293T (setting [1]); 0.21 with HEK-293T (setting [2]); 0.68 in the data set with Fibroblast (setting [2]); -0.02 in the data set on Fibroblast (setting [3]); 0.63 with Fibroblast (setting [9]). Besides, the “Growth Rate” value in the data set on Fibroblast (setting [5]) stood at 0.84; in the data set with Fibroblast (setting [10]), 0.6.

Regarding `Cn1cnc(-c2cc3nccc(Oc4ccc(NC(=S)NC(=O)Cc5ccccc5)cc4F)c3s2)c1`, the “Growth Rate” value in the data set with U2OS (setting [1]) is -0.11; with U2OS (setting [2]), -0.99; in the data set on U2OS (setting [4]) it was 0.95; in the data set with U2OS (setting [6]) it was 0.93; in the data set on U2OS (setting [7]) it was 0.98; in the data set on HEK-293T (setting [3]), -0.37. Moreover, the “Growth Rate” value in the data set on HEK-293T (setting [8]) is given as -0.26; with HEK-293T (setting [9]), -0.02; in the data set with HEK-293T (setting [4]) it was 0.34; in the data set with HEK-293T (setting [5]), 0.28; with HEK-293T (setting [6]), 0.64; in the data set with HEK-293T (setting [10]), 0.6. The “Growth Rate” value in the data set with HEK-293T (setting [7]) is reported as 0.99; in the data set on Fibroblast (setting [2]), 0.94; with Fibroblast (setting [3]), 0.43; in the data set on Fibroblast (setting [8]) it was -0.42; with Fibroblast (setting [9]) it was -0.11; with Fibroblast (setting [4]), 0.3. In addition, the results for the “Growth Rate” value in the data set on Fibroblast (setting [5]), with Fibroblast (setting [6]) and in the data set on Fibroblast (setting [10]) were 0.43, 0.77 and 0.31, respectively.

As for `CCOc1ccc(Cc2nc3cc(C(=O)N(CC)CC)ccc3n2CC2CCCCC2)cc1`, the “Growth Rate” value in the data set with U2OS (setting [1]) is -0.21; in the data set with U2OS (setting [2]) it was -1; in the data set with U2OS (setting [6]), 1; in the data set with HEK-293T (setting [1]), 0.75; with HEK-293T (setting [2]), 0.57; with HEK-293T (setting [8]), 0.53. Further, the “Growth Rate” value turned out to be 0.75 in the data set on HEK-293T (setting [9]); 0.86 with HEK-293T (setting [5]); 0.93 with HEK-293T (setting [10]); 0.96 in the data set on Fibroblast (setting [1]); 0.61 in the data set with Fibroblast (setting [8]); 0.58 in the data set on Fibroblast (setting [4]). The “Growth Rate” value in the data set with Fibroblast (setting [6]) stood at 0.98.

In the case of `CCNC1(C(N)=O)CCN(c2ncnc3c2nc(-c2ccccc2Cl)n3-c2ccc(Cl)cc2)CC1` [OTENABANT], the “Growth Rate” value in the data set with U2OS (setting [1]) is -0.85; in the data set on U2OS (setting [8]), 0.79; in the data set with U2OS (setting [4]) it was 0.93; in the data set on U2OS (setting [6]) it was 0.92; with U2OS (setting [7]), 0.93; in the data set on HEK-293T (setting [4]), 0.81. For the same compound, the “Growth Rate” value is on record as -0.61 in the data set with Fibroblast (setting [1]); 0.22 in the data set with Fibroblast (setting [2]); 0.96 in the data set with Fibroblast (setting [8]); -0.34 with Fibroblast (setting [9]); 1 with Fibroblast (setting [4]); 0.38 with Fibroblast (setting [5]). Moreover, the “Growth Rate” value in the data set with Fibroblast (setting [10]) is -0.07.

As for `CN[C@@H]1C[C@H]2O[C@@](C)([C@@H]1OC)n1c3ccccc3c3c4c(c5c6ccccc6n2c5c31)C(=O)NC4` [STAUROSPORINE], the “Growth Rate” value was 0.79 in the data set on U2OS (setting [5]); 0.69 in the data set with U2OS (setting [6]); 0.65 in the data set with U2OS (setting [10]); 0.49 in the data set on U2OS (setting [7]); -0.75 with HEK-293T (setting [1]); -0.46 in the data set on HEK-293T (setting [2]). The “Growth Rate” value in the data set with HEK-293T (setting [5]) is 0.33; in the data set with HEK-293T (setting [6]), 0.42; with HEK-293T (setting [10]), 0.11; with HEK-293T (setting [7]) it was 0.09; in the data set with Fibroblast (setting [1]), 0.05; with Fibroblast (setting [2]) it was -0.7. Besides, the “Growth Rate” value with Fibroblast (setting [9]) is recorded as 0.41; with Fibroblast (setting [5]), 0; with Fibroblast (setting [6]), 0.61; in the data set with Fibroblast (setting [10]) it was -0.13; in the data set with Fibroblast (setting [7]), 0.35.

With `Cl.O=C1CC[C@@]2(O)[C@H]3Cc4ccc(O)c5c4[C@@]2(CCN3CC2CC2)[C@H]1O5` [NALTREXONE HYDROCHLORIDE], the “Growth Rate” value in the data set on U2OS (setting [1]) is given as 0.86; in the data set on U2OS (setting [2]) it was -1; with U2OS (setting [3]) it was -0.02; in the data set on U2OS (setting [8]) it was 0.81; with U2OS (setting [9]) it was 0.39; in the data set on U2OS (setting [4]), 0.91. For the same compound, the “Growth Rate” value was 0.67 with U2OS (setting [5]); 0.83 in the data set on U2OS (setting [10]); 0.83 with HEK-293T (setting [2]); 0.84 with HEK-293T (setting [8]); 0.67 in the data set with Fibroblast (setting [1]); 0.63 in the data set with Fibroblast (setting [2]). The “Growth Rate” value in the data set with Fibroblast (setting [3]) worked out at 0.38; in the data set with Fibroblast (setting [10]), 0.6.

Turning to `CN(C)C(=O)N1CC[C@H](NC2=Nc3cc(F)ccc3N(CC(F)F)c3ccc(Cl)cc32)C1`, the “Growth Rate” value is listed as 0.92 in the data set with U2OS (setting [4]); 0.92 in the data set with U2OS (setting [6]); 0.7 with HEK-293T (setting [2]); 0.94 in the data set with HEK-293T (setting [3]); 0.35 with HEK-293T (setting [8]); 0.82 in the data set with HEK-293T (setting [9]). Besides, the “Growth Rate” value is 0.77 in the data set on HEK-293T (setting [4]); 0.89 in the data set on HEK-293T (setting [5]); 0.79 with HEK-293T (setting [6]); 0.83 in the data set on HEK-293T (setting [10]); 0.88 in the data set on HEK-293T (setting [7]); -0.03 in the data set with Fibroblast (setting [2]). Moreover, the “Growth Rate” value in the data set with Fibroblast (setting [3]) is given as -0.43; in the data set with Fibroblast (setting [9]) it was 0.6; in the data set on Fibroblast (setting [5]), 0.62; in the data set with Fibroblast (setting [6]), 0.82; in the data set on Fibroblast (setting [10]), 0.32; in the data set on Fibroblast (setting [7]) it was 0.81.

Regarding `Cc1cc(=O)n(C)c2cc(N3C(=O)CC[C@H](NS(=O)(=O)CC(C)C)[C@H]3c3ccc(Cl)cc3)ccc12`, the “Growth Rate” value with U2OS (setting [1]) is -0.56; with U2OS (setting [2]), -0.09; in the data set on U2OS (setting [3]) it was 0.78; in the data set on U2OS (setting [9]), 0.8; in the data set with U2OS (setting [4]), 0.96; in the data set with U2OS (setting [5]), 0.5. For the same compound, the “Growth Rate” value in the data set on U2OS (setting [10]) is recorded as 0.7; in the data set on HEK-293T (setting [2]) it was 0.38; in the data set on HEK-293T (setting [3]), -0.08; in the data set on HEK-293T (setting [9]), 0.15; in the data set on HEK-293T (setting [4]), 0.9; in the data set on HEK-293T (setting [5]), 0.21. For the same compound, the “Growth Rate” value in the data set on HEK-293T (setting [6]) is 0.76; with HEK-293T (setting [10]) it was 0.18; in the data set with HEK-293T (setting [7]), 0.8; in the data set with Fibroblast (setting [3]), -0.91; with Fibroblast (setting [8]) it was -0.68; in the data set on Fibroblast (setting [9]), -0.73. Moreover, the “Growth Rate” value in the data set on Fibroblast (setting [4]) is on record as -0.53; in the data set with Fibroblast (setting [5]) it was -0.76; in the data set with Fibroblast (setting [6]) it was -0.4; in the data set with Fibroblast (setting [10]) it was -0.65; with Fibroblast (setting [7]) it was -0.38.

In the case of `Fc1cccc(/C=N/N=C/c2cccc(F)c2)c1`, the “Growth Rate” value amounted to 0.84 in the data set with U2OS (setting [2]); 0.83 with U2OS (setting [8]); 0.84 with U2OS (setting [4]); 0.2 with HEK-293T (setting [2]); 0.72 in the data set on HEK-293T (setting [3]); 0.77 in the data set with HEK-293T (setting [9]). Further, the “Growth Rate” value is 0.89 in the data set on HEK-293T (setting [5]); 0.96 with HEK-293T (setting [10]); -0.08 in the data set on Fibroblast (setting [3]); 0.7 in the data set with Fibroblast (setting [9]); 0.91 in the data set with Fibroblast (setting [10]).
